The record followed here is EPA's ToxValDB 9.5 (doi:10.2903/j.efsa.2014.3881).

Each structure is given as a SMILES string.

The subject of one data set is Anas platyrhynchos. To be noted: reproductive.
The next data set has as its system Apis mellifera. To be noted: acute, mortality.
In another data set the test system is Canidae. The conditions noted are these: chronic; duration: 1 years; oral; Dog Other; body weight.
Another data set concerns Colinus virginianus. To be noted: acute; oral; diet; mortality.
The test system of the next data set is Coturnix japonica. The conditions noted are these: acute; oral; mortality.
In a further data set the test system is Daphnia magna. To be noted: chronic/long-term; duration: 21 days; reproduction.
In the next data set the test system is Mus musculus. The conditions noted are these: chronic; duration: 18 months; body weight.

By NOAEL is commonly meant the highest dose or exposure tested at which no adverse effect was seen. `COC(=O)c1ccc(C(F)(F)F)nc1S(=O)(=O)[N-]C(=O)Nc1nc(OC)cc(OC)n1.[Na+]` [Flupyrsulfuron-methyl sodium] registered an NOEL in the data set with Anas platyrhynchos of 26 mg/kg-day. Also, the LD50 with Apis mellifera (dermal) was > 250 µg/piece; in the data set with Apis mellifera (oral, unspecified) it was 119 µg/piece; with Colinus virginianus it was > 1610 mg/kg-day; in the data set on Coturnix japonica, > 2250 mg/kg-day; in the data set on Rattus norvegicus (acute, mortality) it was > 2500 mg/kg-day. The NOAEL with Canidae was 13.6 mg/kg-day; in the data set on Mus musculus it was 3.51 mg/kg-day; in the data set with Rattus norvegicus (developmental, development) it was 20 mg/kg-day. For the same compound, the NOEC in the data set with Daphnia magna came out at 16 mg/L; with Oncorhynchus mykiss (chronic/long-term, duration: 90 days, growth) it was 9.2 mg/L; in the data set with Tagia sp. (chronic/long-term, duration: 8 weeks), 0.065 mg/kg. The LC50 in the data set on Oncorhynchus mykiss (acute, duration: 96 hours, mortality) was 470 µg/mL; in the data set on Tagia sp. (acute, duration: 14 days, mortality), > 1000 mg/kg.
